Where two headings read alike, the source gives them in different places. Ends that are not written are not given here. Peptide text beside a SMILES is read from it.
Experiments:
SaOS cells = assay: cAMP production in SaOS cells, dose-response; type: cell-based
[1] = molecular target: T1, human PTHR, G protein-uncoupled conformation (R^0) (Homo sapiens, UniProt Q03431); assay: Competition binding to R0 conformation of hPTHR (COS-7 membranes, GTPγS, 125I-PTH(1-34) tracer); conditions: for IC50: read-out: R^0 binding affinity hPTHR IC50; for screen human PIR R0 (% parent): parent PTHrP(1-28)NH
T1 construct: expressed in transfected cells; host or cells: COS-7, transient (Fugene-6)
T1 sequence (Q03431 27-593): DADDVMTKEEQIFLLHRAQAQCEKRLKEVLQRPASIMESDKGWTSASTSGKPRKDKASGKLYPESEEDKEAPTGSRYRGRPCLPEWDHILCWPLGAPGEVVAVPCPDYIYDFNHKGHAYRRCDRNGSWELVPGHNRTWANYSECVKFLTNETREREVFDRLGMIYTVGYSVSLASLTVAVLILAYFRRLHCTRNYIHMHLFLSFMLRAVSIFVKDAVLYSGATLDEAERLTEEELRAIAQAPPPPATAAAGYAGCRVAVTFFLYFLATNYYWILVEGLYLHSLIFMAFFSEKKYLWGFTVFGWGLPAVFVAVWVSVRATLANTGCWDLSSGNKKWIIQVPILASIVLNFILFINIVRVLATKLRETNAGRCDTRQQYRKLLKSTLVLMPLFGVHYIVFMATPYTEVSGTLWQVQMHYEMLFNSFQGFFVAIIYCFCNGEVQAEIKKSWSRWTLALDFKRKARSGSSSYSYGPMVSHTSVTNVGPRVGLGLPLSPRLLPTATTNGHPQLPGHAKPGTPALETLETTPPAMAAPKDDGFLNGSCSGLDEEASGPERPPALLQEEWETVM
Procedure, shortened: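 Bound versus free radioligand was separated by vacuum filtration after 90 min incubation of COS-7 hPTHR membranes (20-100 μg/mL) with tracer and competing peptides. Non-specific binding came from a saturating unlabeled analog.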

[2] = test system: LLCPK1-B64 cells or SaOS-2 cells; assay: cAMP screen of substituted PTHrP(1-28) analogs (% parent); type: cell-based; conditions: parent PTHrP(1-28)NH
Procedure, shortened: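 LLCPK1-B64 or SaOS-2 cells exposed to peptide analogs at 3×10^−9M with IBMX for 30 minutes at room temperature, then cAMP measured. Each analog's response expressed as percentage of that for parent PTHrP(1-28).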

MC3T3-E1 cells = assay: cAMP in MC3T3-E1 cells, dose-response; type: cell-based
Description: In the 1-30 scaffold, Gly, Ser, Leu, Asn, Gln, Trp, Glu, and Lys were substituted at position 29; Gly, Ser, Leu, Asn, Asp, Trp, and Lys were substituted at position 30; and Ser, Leu, Asn, Val, Trp, Glu, and Lys were substituted at position 31. […] These peptides were tested for cAMP activity in MC3T3-E1 cells.

[3] = molecular target: T2, human PTHR, G protein-coupled conformation (RG) (Homo sapiens, UniProt Q03431); assay: Competition binding to RG conformation of hPTHR (COS-7 membranes, GαsND, 125I-[Aib1,3,M]PTH(1-15) tracer); conditions: for IC50: Table 2, read-out: RG binding affinity hPTHR IC50; for screen human PIR RG (% parent): parent PTHrP(1-28)NH
T2 construct: expressed in transfected cells; host or cells: COS-7, transient (Fugene-6); membranes
T2 sequence (Q03431 27-593): T1 sequence (Q03431 27-593)

[4] = Calcemic action in normal rats (blood ionized calcium); type: in vivo; conditions: for calcemic action compared with control peptides, in words: normal and TPTX rats
Description: Binding to the rat PTHR was also measured in vitro.
Concentration of peptides in stock solution were adjusted by dilution with 25 mmol/L phosphate-citrate buffer/100 mmol/L NaCl/0.05% Tween 80 (pH. 5.0) (PC-buffer). All peptides were allowed to stand on ice immediately before administration.
Female SD-IGS rat at 8 weeks of age (Charles River Japan, Inc.) were measured for their body weight. Blood was collected by tail vein into heparinized capillary tubes and measured for baseline levels of blood ionized calcium and pH using Ca^++/pH analyzer (Model 634/Bayer Medical Ltd.) to give the corrected level of ionized calcium at pH 7.4 for each sample. Rats received intravenous administration of each peptides at a dose of 1 ml/kg. Peptides were administered to groups of 6 rats each respectively. At 1, 2, 4, or 6 hours after administration, blood was collected by tail vein to monitor the time course of corrected blood ionized calcium levels. The time course of changes in corrected ionized calcium levels, compared to vehicle, and are expressed as means+/−standard error.

human PTH receptor = molecular target: T3, human PTH receptor (Homo sapiens, UniProt Q03431); assay: cAMP in HRKRK-B7 cells EC50 (nM)
T3 construct: expressed in transfected cells
Description: Table printed on a drawing sheet, Figure 25
Head of the field: cAMP in HRKRK-B7 cells EC50 (nM)
First copying reader's note: The column head prints the cell line as HRKRK-B7 while the title prints HKRK-B7.

[5] = Table 2, read-out: SaOS camp EC50
[6] = Table 3, read-out: dose-response cAMP in SaOS (EC50)
[7] = Table 2, read-out: MC3T3-E1 cAMP EC50
[8] = Table 3, read-out: dose-response cAMP in MC3T3-E1 (EC50)

EC50 (SaOS cells; [5]) [nM] | EC50 (SaOS cells; [6]) [nM] | R0/RG selectivity ([1]; Table 2, hPTHR) | IC50 ([1]; Table 2) [nM] | screen human PIR R0 (% parent) [1] [% parent] | EC50 (MC3T3-E1 cells; [7]) [nM] | EC50 (MC3T3-E1 cells; [8]) [nM] | IC50 [3] [nM] | screen human PIR RG (% parent) [3] [% parent] | EC50 (human PTH receptor) [nM] | Compound | screen cAMP (% parent) [2] [% parent] | calcemic action compared with control peptides, in words [4] | calcemic action (blood ionized calcium), in words ([4]; normal rats, i.v.)
0.024 | 0.024 | 18079 | 1810 | 178 | 0.091 | 0.091 | 0.1 | 193 |  | CC[C@H](C)[C@H](NC(=O)[C@H](CC(C)C)NC(=O)[C@H](CCCCN)NC(=O)[C@H](Cc1c[nH]cn1)NC(=O)[C@H](CC(C)C)NC(=O)[C@H](Cc1ccccc1)NC(=O)[C@H](C)NC(=O)[C@H](CCCNC(=N)N)NC(=O)[C@H](CCCNC(=N)N)NC(=O)[C@H](CCCNC(=N)N)NC(=O)[C@H](C)NC(=O)[C@H](CC(=O)O)NC(=O)[C@H](CCC(N)=O)NC(=O)[C@@H](NC(=O)[C@H](CO)NC(=O)[C@H](CCCCN)NC(=O)CNC(=O)[C@H](CCCCN)NC(=O)[C@H](CC(=O)O)NC(=O)[C@H](Cc1c[nH]cn1)NC(=O)[C@H](CC(C)C)NC(=O)[C@H](CC(C)C)NC(=O)[C@H](CCC(N)=O)NC(=O)[C@H](Cc1c[nH]cn1)NC(=O)[C@H](CCC(=O)O)NC(=O)[C@H](CO)NC(=O)[C@@H](NC(=O)[C@H](C)N)C(C)C)[C@@H](C)CC)C(N)=O [A18, 22, K26-PTHrP(1-28)NH, A18,22,K26-PTHrP(1-28)] (H-AVSEHQLLHDKGKSIQDARRRAFLHKLI-NH2; N-terminus assumed) | 405 |  | 
0.008 |  |  | 144 |  | 0.067 | 0.067 | 0.05 |  |  | CC[C@H](C)[C@H](NC(=O)[C@H](CC(C)C)NC(=O)[C@H](CCCCN)NC(=O)[C@H](CC(C)C)NC(=O)[C@H](CC(C)C)NC(=O)[C@H](Cc1ccccc1)NC(=O)[C@H](C)NC(=O)[C@H](CCCNC(=N)N)NC(=O)[C@H](CCCNC(=N)N)NC(=O)[C@H](CCCNC(=N)N)NC(=O)[C@H](C)NC(=O)[C@H](CC(=O)O)NC(=O)[C@H](CCC(N)=O)NC(=O)[C@@H](NC(=O)[C@H](CO)NC(=O)[C@H](CCCCN)NC(=O)CNC(=O)[C@H](CCCCN)NC(=O)[C@H](CC(=O)O)NC(=O)[C@H](Cc1c[nH]cn1)NC(=O)[C@H](CC(C)C)NC(=O)[C@H](CC(C)C)NC(=O)[C@H](CCC(N)=O)NC(=O)[C@H](Cc1c[nH]cn1)NC(=O)[C@H](CCC(=O)O)NC(=O)[C@H](CO)NC(=O)[C@@H](NC(=O)[C@H](C)N)C(C)C)[C@@H](C)CC)C(=O)N[C@@H](C)C(=O)N[C@@H](CCC(=O)O)C(N)=O [A18, 22, L25, K26-PTHrP(1-30)NH, A18,22,L25,K26-PTHrP(1-30)] |  |  | 
0.241 | 0.241 |  | 9240 | 68.8 | 0.251 | 0.251 |  | 145 |  | CC[C@H](C)[C@H](NC(=O)[C@H](CC(C)C)NC(=O)[C@H](CCCCN)NC(=O)[C@H](Cc1c[nH]cn1)NC(=O)[C@H](CC(C)C)NC(=O)[C@H](Cc1ccccc1)NC(=O)[C@H](C)NC(=O)[C@H](CCCNC(=N)N)NC(=O)[C@H](CCCNC(=N)N)NC(=O)[C@H](CCCNC(=N)N)NC(=O)[C@H](CCC(=O)O)NC(=O)[C@H](CC(=O)O)NC(=O)[C@H](CCC(N)=O)NC(=O)[C@@H](NC(=O)[C@H](CO)NC(=O)[C@H](CCCCN)NC(=O)CNC(=O)[C@H](CCCCN)NC(=O)[C@H](CC(=O)O)NC(=O)[C@H](Cc1c[nH]cn1)NC(=O)[C@H](CC(C)C)NC(=O)[C@H](CC(C)C)NC(=O)[C@H](CCC(N)=O)NC(=O)[C@H](Cc1c[nH]cn1)NC(=O)[C@H](CCC(=O)O)NC(=O)[C@H](CO)NC(=O)[C@@H](NC(=O)[C@H](C)N)C(C)C)[C@@H](C)CC)C(N)=O [E18, A22, K26-PTHrP(1-28)NH, E18,A22,K26-PTHrP(1-28)] (H-AVSEHQLLHDKGKSIQDERRRAFLHKLI-NH2; N-terminus assumed) | 301 |  | 

The next lines start with the compound.

Compound | EC50 (SaOS cells; [5]) [nM] | EC50 (SaOS cells; [6]) [nM] | R0/RG selectivity ([1]; Table 2, hPTHR) | IC50 ([1]; Table 2) [nM] | screen human PIR R0 (% parent) [1] [% parent] | EC50 (MC3T3-E1 cells; [7]) [nM] | EC50 (MC3T3-E1 cells; [8]) [nM] | IC50 [3] [nM] | screen human PIR RG (% parent) [3] [% parent] | EC50 (human PTH receptor) [nM] | screen cAMP (% parent) [2] [% parent] | calcemic action compared with control peptides, in words [4] | calcemic action (blood ionized calcium), in words ([4]; normal rats, i.v.)
CC[C@H](C)[C@H](NC(=O)[C@H](CCC(=O)O)NC(=O)[C@H](C)NC(=O)[C@@H](NC(=O)[C@H](Cc1c[nH]cn1)NC(=O)[C@@H](NC(=O)[C@H](CCC(=O)O)NC(=O)[C@H](C)NC(=O)[C@@H](NC(=O)[C@H](CC(C)C)NC(=O)[C@H](Cc1c[nH]cn1)NC(=O)[C@H](Cc1c[nH]cn1)NC(=O)[C@H](CC(C)C)NC(=O)[C@H](Cc1ccccc1)NC(=O)[C@H](Cc1ccccc1)NC(=O)[C@H](CCCNC(=N)N)NC(=O)[C@H](CCCNC(=N)N)NC(=O)[C@H](CCCNC(=N)N)NC(=O)[C@H](CC(C)C)NC(=O)[C@H](CC(=O)O)NC(=O)[C@H](CCC(N)=O)NC(=O)[C@@H](NC(=O)[C@H](Cc1c[nH]cn1)NC(=O)[C@H](CCCCN)NC(=O)CNC(=O)[C@H](CC(C)C)NC(=O)[C@H](CC(N)=O)NC(=O)[C@H](Cc1c[nH]cn1)NC(=O)[C@H](CCSC)NC(=O)[C@H](CC(C)C)NC(=O)[C@H](CCC(N)=O)NC(=O)[C@@H](NC(=O)[C@H](CCC(=O)O)NC(=O)[C@H](CO)NC(=O)[C@@H](NC(=O)[C@@H](N)CO)C(C)C)[C@@H](C)CC)[C@@H](C)CC)[C@@H](C)CC)[C@@H](C)CC)[C@@H](C)O)C(=O)O [PTH(1-14)/PTHrP(15-36), hPTH(1-14)/PTHrP(15-36)] (H-SVSEIQLMHNLGKHIQDLRRRFFLHHLIAEIHTAEI-OH) |  |  |  |  |  |  |  |  |  | 1.35 |  | higher calcemic actions than did PTH(1-34) | 
CC[C@H](C)[C@H](NC(=O)[C@H](CCC(=O)O)NC(=O)[C@H](C)NC(=O)[C@@H](NC(=O)[C@H](Cc1c[nH]cn1)NC(=O)[C@@H](NC(=O)[C@H](CCC(=O)O)NC(=O)[C@H](C)NC(=O)[C@@H](NC(=O)[C@H](CC(C)C)NC(=O)[C@H](Cc1c[nH]cn1)NC(=O)[C@H](Cc1c[nH]cn1)NC(=O)[C@H](CC(C)C)NC(=O)[C@H](Cc1ccccc1)NC(=O)[C@H](Cc1ccccc1)NC(=O)[C@H](CCCNC(=N)N)NC(=O)[C@H](CCCNC(=N)N)NC(=O)[C@H](CCCNC(=N)N)NC(=O)[C@H](CCSC)NC(=O)[C@H](CO)NC(=O)[C@H](CC(N)=O)NC(=O)[C@H](CC(C)C)NC(=O)[C@H](Cc1c[nH]cn1)NC(=O)[C@H](CCCCN)NC(=O)CNC(=O)[C@H](CC(C)C)NC(=O)[C@H](CC(N)=O)NC(=O)[C@H](Cc1c[nH]cn1)NC(=O)[C@H](CCSC)NC(=O)[C@H](CC(C)C)NC(=O)[C@H](CCC(N)=O)NC(=O)[C@@H](NC(=O)[C@H](CCC(=O)O)NC(=O)[C@H](CO)NC(=O)[C@@H](NC(=O)[C@@H](N)CO)C(C)C)[C@@H](C)CC)[C@@H](C)CC)[C@@H](C)CC)[C@@H](C)O)C(=O)O [PTH(1-18)/PTHrP(19-36), hPTH(1-18)/PTHrP(19-36)] (H-SVSEIQLMHNLGKHLNSMRRRFFLHHLIAEIHTAEI-OH) |  |  |  |  |  |  |  |  |  | 1.34 |  | higher calcemic actions than did PTH(1-34) | 
AVAEIQLMHQRGKSIQDLRRRFFLHHLIAEIHTAEI (AVAEIQLMHQRGKSIQDLRRRFFLHHLIAEIHTAEI-OH) [Mc-PTH(1-11)/PTHrP(15-36)] |  |  |  |  |  |  |  |  |  |  |  |  | Prolonged calcemic effects
